Columns and labels:
[1] = biological target: recombinant FLT1 active protein (Homo sapiens, UniProt P17948); test: In vitro filter assay for FLT1 kinase activity; type: biochemical; details: 30 min preincubation at room temperature, kinase reaction 20 min at 30° C., 100 μM ATP, 250 μM IGF-1Rtide, triplicate
Method: The inhibition of FLT1 by compounds according to Formula I was assessed by employing an in vitro filter assay for FLT1.
Compounds 1-15 were prepared as 10 mmol stock solutions in DMSO. Curcumin was also prepared as a 10 mmol stock solution for testing in the FLT1 assay. Five units of recombinant FLT1 active protein was incubated with different concentrations of each compound in a 15 μl reaction mixture (50 mM HEPES, 10 mM MgCl2, 1 mM EDTA, 2 mM Dithiothreitol 0.01% NP-40 pH 7.5) for 30 minutes at room temperature (25° C). Kinase reactions were performed for 20 minutes at 30° C. in a volume of 20 μl (15 μl enzyme+compound of Formula I, 2 μl 1 mM ATP (100 μM final concentration), 2 μl of γ 32^pATP (40 μci final concentration) and 250 μM of IGF-1Rtide. 10 μl aliquots of the kinase reaction were spotted onto the center of a filter (2 cm×2 cm P81 phosphocellulose paper square). After 30 seconds, the filters were washed with 0.75% phosphoric acid (3×5 minutes) and once with acetone (5 minutes). The wet filters were transferred into a scintillation vial containing scintillation cocktail ^32P (5 mL). Radioactivity was determined using a scintillation counter. Control analyses were performed with DMSO stock solutions containing no compound. Binding values were corrected for non-specific binding by performing duplicate assays in the absence of FLT1 enzyme and subtracting the non-specific binding values from the values obtained in the presence of FLT1. Counts per minute (CPM) of aliquots containing a compound of Formula I were compared with CPM of control samples. The kinase activity is expressed in percent of the maximal kinase activity. […] All assays were carried out in triplicate.

[2] = test system: androgen receptor negative prostate (DU145) cell line; test: Effect on growth of human tumor cells in culture (viable cells, Trypan blue exclusion); type: cell-based; details: five concentrations (1-100 μM range), read from dose response curve
Method: The effect of compounds according to Formula I on the growth of human tumor cells in culture was evaluated using the androgen receptor negative prostate (DU145) cell line. The cell culture was maintained at 37° C. in a humidified atmosphere of 5% CO2.
Cells were treated with compounds according to Formula I at five different concentrations (1-100 μM range) for each compound. For comparison, the cells were treated with curcumin at the same concentrations. The dose response was established by determining the number of viable cells after 96 h of continuous treatment against each of the different test concentrations of each compound. The determination of viable cells was done by the Trypan blue exclusion method. Activity for each compound at each concentration is reported as a percentage of cells that remain viable.
The GI50 values were determined by direct extrapolation from each dose response curve.

[3] = Homo sapiens, DU-145, 96 h continuous treatment

Chain of recombinant FLT1 active protein (P17948 27-1338): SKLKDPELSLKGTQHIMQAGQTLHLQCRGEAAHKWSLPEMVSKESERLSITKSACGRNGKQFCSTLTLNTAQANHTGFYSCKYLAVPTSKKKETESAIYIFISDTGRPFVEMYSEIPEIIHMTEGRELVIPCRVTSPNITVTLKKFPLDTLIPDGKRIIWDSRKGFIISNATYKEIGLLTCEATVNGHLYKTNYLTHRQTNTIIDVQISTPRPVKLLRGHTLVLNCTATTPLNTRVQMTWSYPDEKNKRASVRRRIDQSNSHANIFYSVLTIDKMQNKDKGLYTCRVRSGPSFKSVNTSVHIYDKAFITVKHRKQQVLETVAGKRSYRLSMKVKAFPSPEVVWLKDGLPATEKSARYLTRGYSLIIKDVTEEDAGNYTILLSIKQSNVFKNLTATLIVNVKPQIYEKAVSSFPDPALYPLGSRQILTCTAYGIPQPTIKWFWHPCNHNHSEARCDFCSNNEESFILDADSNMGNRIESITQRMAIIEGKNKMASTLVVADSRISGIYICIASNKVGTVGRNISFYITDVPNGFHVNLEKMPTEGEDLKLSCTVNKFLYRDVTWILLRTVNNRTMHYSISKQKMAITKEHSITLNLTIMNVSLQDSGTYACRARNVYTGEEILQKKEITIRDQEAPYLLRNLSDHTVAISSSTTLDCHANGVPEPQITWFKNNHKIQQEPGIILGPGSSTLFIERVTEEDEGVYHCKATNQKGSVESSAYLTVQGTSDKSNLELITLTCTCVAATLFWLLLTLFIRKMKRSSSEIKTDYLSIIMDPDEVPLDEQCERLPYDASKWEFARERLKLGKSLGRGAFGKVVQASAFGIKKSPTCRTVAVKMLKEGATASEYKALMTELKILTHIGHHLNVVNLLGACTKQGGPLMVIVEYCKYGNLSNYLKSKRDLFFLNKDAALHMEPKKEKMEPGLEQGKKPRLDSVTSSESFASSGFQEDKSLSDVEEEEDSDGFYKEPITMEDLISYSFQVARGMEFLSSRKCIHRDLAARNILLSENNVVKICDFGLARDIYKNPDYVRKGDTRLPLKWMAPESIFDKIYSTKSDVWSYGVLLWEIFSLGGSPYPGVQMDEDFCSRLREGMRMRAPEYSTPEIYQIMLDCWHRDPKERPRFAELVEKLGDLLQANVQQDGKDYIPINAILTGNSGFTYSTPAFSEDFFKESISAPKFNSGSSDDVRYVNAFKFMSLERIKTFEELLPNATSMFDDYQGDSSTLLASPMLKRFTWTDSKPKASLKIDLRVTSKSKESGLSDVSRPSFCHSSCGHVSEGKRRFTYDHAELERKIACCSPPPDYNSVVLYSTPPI

| Compound | IC50 [1] [µM] | GI50 [2, 3] [µM] | GI50 ([2]; 96 h continuous treatment) [µM] |
| --- | --- | --- | --- |
| O=S(=O)(/C=C/c1ccsc1)CS(=O)(=O)/C=C/c1ccsc1 [Example 8, bis((E)-2-(Thiophen-3-yl)vinylsulfonyl)methane] | 11.2 | < 10 | – |
| COc1cc(OC)c(/C=C/S(=O)(=O)CS(=O)(=O)/C=C/c2c(OC)cc(OC)cc2OC)c(OC)c1 [Example 2, bis((E)-2,4,6-Trimethoxystyrylsulfonyl)methane] | 0.281 | 75 | – |
| N#Cc1ccc(/C=C/S(=O)(=O)CS(=O)(=O)/C=C/c2ccc(C#N)cc2F)c(F)c1 [Example 3, 4-((1E)-2-(((E)-2-Fluoro-4-cyanostyrylsulfonyl)methylsulfonyl)vinyl)-3-fluorobenzonitrile] | 0.162 | 25 to 50 | – |
| O=S(=O)(/C=C/c1ccc(F)cc1F)CS(=O)(=O)/C=C/c1ccc(F)cc1F [Example 4, bis((E)-2,4-Difluorostyrylsulfonyl)methane] | 2.23 | < 10 | – |
| O=S(=O)(/C=C/c1ccc(Br)cc1)CS(=O)(=O)/C=C/c1ccc(Br)cc1 [Example 7, bis((E)-4-Bromostyrylsulfonyl)methane] | 0.316 | < 10 | – |
| O=S(=O)(/C=C/c1ccccc1)CS(=O)(=O)/C=C/c1ccccc1 [Example 9, bis((E)-Styrylsulfonyl)methane] | > 100 | 10 to 25 | – |
| 4-((1E)-2-(((E)-4-hydroxy-2,6-dimethoxystyrylsulfonyl)methylsulfonyl)vinyl)-3,5-dimethoxyphenol. [Example 15] | 0.077 | – | < 1 |
| bis((E)-Perfluorostyrylsulfonyl)methane [Example 13] | 0.416 | – | < 2.5 |
| O=S(=O)(/C=C/c1ccc(I)cc1)CS(=O)(=O)/C=C/c1ccc(I)cc1 [Example 10, bis((E)-4-Iodostyrylsulfonyl)methane] | > 10 | – | – |
| COc1cc(/C=C/S(=O)(=O)CS(=O)(=O)/C=C/c2ccc(O)c(OC)c2)ccc1O [Example 1, 4-((1E)-2-(((E)-4-Hydroxy-3-methoxystyrylsulfonyl)methylsulfonyl)vinyl)-2-methoxyphenol] | 3.89 | < 10 | – |
| COc1cccc(OC)c1/C=C/S(=O)(=O)CS(=O)(=O)/C=C/c1c(OC)cccc1OC [Example 5, bis((E)-2,6-Dimethoxystyrylsulfonyl)methane] | 12.8 | 25 to 50 | – |
| COc1cc(/C=C/S(=O)(=O)CS(=O)(=O)/C=C/c2cc(OC)c(OC)c(OC)c2)cc(OC)c1OC [Example 14, bis((E)-3,4,5-Trimethoxystyrylsulfonyl)methane] | > 10 | 7.5 | – |
| O=S(=O)(/C=C/c1ccc(Cl)cc1)CS(=O)(=O)/C=C/c1ccc(Cl)cc1 [Example 6, bis((E)-4-Chlorostyrylsulfonyl)methane] | 51 | 10 to 25 | – |
| O=S(=O)(/C=C/c1ccc(F)cc1)CS(=O)(=O)/C=C/c1ccc(F)cc1 [Example 11, bis((E)-4-Fluorostyrylsulfonyl)methane] | > 100 | < 10 | – |
| COc1cc(/C=C/C(=O)CC(=O)/C=C/c2ccc(O)c(OC)c2)ccc1O [curcumin, reference compound] | 35 | 35 | – |

From patent US8058313B2, “Alpha, beta-unsaturated sulfones, sulfoxides, sulfonimides, sulfinimides, acylsulfonamides and acylsulfinamides and therapeutic uses thereof” (Temple University—Of The Commonwealth System of Higher …, priority 2004, dated 2011)
